Experimental data reported in patent publication US7087392B2, “Antiproliferative SgK reagents and methods” (The Regents of the University of California, priority 1999, dated 2006).
Numbering of substitutions follows the chain as printed. In names and notes the source's numbering stands.

Columns and labels:
Sgk promoter = assay: Hyperosmotic stress stimulation of Sgk promoter and Sgk protein production; format: cell-based, mouse; conditions: sorbitol hyperosmotic stress
Text: Regulation of Sgk transcription, protein utilization and enzymatic activity defines a new cellular component of the hyperosmotic stress pathway. Using mouse NMuMg nontumorigenic mammary epithelial cells, we have established that Sgk is a new component of the hyperosmotic stress response. (The key observations can be repeated in HeLa cells, MCF-7 human breast cancer cells, kidney derived cell and rat fibroblasts). […] This hyperosmotic stress regulated element can confer the hyperosmotic stress response to a heterologous promoter. […] Using a generally similar series of experiments, we have also shown that exposure of mammary epithelial cells to 40 J/m^2 UV radiation causes a rapid but transient stimulation in Sgk protein levels that peaks approximately 2 hours after this genotoxic stress.
The hyperosmotic stress cascade targets the sgk promoter by activating the p38/MAPK stress kinase. […] Co-transfection of the stress responsive Sgk-CAT reporter plasmid with a dominant negative form of MKK3, one of two upstream kinase regulators of the p38/MAPK, inhibits the sorbitol induction of the Sgk promoter.

Sgk = assay: In vitro peptide kinase assay (Sgktide, [32P]ATP) of immunoprecipitated HA-Sgk; format: biochemical; conditions: for effect of cell treatment on Sgk enzymatic activity: activators or inhibitor of PI 3-kinase pathway; for kinase activity / activation of Sgk mutant: mutant forms of Sgk
Text: Sgk is a component of the PI3 kinase cascade and is directly activated by PDK1 mediated phosphorylation of threonine 256 in the activation loop. […] To develop this kinase assay, lysates from human embryo kidney 293 cells transfected to express wild type hemagglutinin (HA)-tagged Sgk (HA-Sgk) were isolated and the Sgk immunoprecipitated with HA antibodies was used to screen a synthetic peptide library for identifying potential Sgk substrates. The immunoprecipitates were extensively washed, and incubated with the peptide in the presence of [^32P]ATP in kinase buffer (Park et al 1999). Sgk phosphorylated several peptides, and the best substrate for Sgk was KKRNRRLSVA (SEQ ID NO:01), which is named Sgktide. […] This substrate specificity is generally similar to, but not identical, with the substrate specificity for Akt, which is a well characterized down stream component of the PI 3 kinase pathway.
(§1) Cotransfection of PDK1 with Sgk caused a 6-fold activation of Sgk activity, whereas, the kinase-dead form of PDK1 had no effect. […] The Ser-78 in the amino terminal domain is a third phosphorylation site and expression of the S78G Sgk mutation ablates the presence of the slowest migrating form of phosphorylated Sgk in SDS polyacrylamide gels.

endogenous Sgk = assay: Phosphorylation state of Sgk in treated cells; format: cell-based; conditions: treatment of cells; serum stimulated mammary tumor cells for the PI 3-kinase inhibitors
Text: as §1

Sgk and Erk/MAPK = assay: Subcellular localization of Sgk and Erk/MAPK in mammary tumor cells; format: cell-based; conditions: MEK inhibitor treatment
Text: Sgk/MAPK interactions: new level of cross talk between GR and phosphorylation cascades. We also observed that the enzymatic activity and subcellular localization of Sgk and the Erk1/Erk2 members of the Mitogen Activated Protein Kinase (MAPK) gene family are co-regulated in a stimulus-dependent manner. […] Wild type or kinase dead forms of Sgk can be co-immunoprecipitated with Erk/MAPK from either serum- or dexamethasone-treated mammary tumor cells. […] Conversely, the forced cellular localization of ectopically expressed Sgk into the nucleus, using the NLS-Sgk, or into the cytoplasmic compartment using the wild type sgk gene, caused Erk/MAPK to co-localize with Sgk.

mammary tumor cells = assay: Transient cell foci growth assay of transfected mammary tumor cells; format: cell-based; conditions: transfected expression vector
Text: Functional evidence for a direct role of sgk in the glucocorticoid anti-proliferative pathway. In both the Con8 mammary epithelial tumor cells (from which Sgk was originally cloned) as well as human MCF-7 breast cancer cells (which were originally derived from a pleural effusion of a metastatic human breast adenocarcinoma) glucocorticoids induce a G1 block in cell cycle progression and strongly stimulate sgk transcript and protein production. […] To initially test whether Sgk has an anti-proliferative function and perhaps mediates the glucocorticoid growth inhibitory response, the full length rat or human wild type sgk cDNA was inserted downstream of the cytomegalovirus (CMV) promoter in an expression vector that also encodes the neomycin resistance gene. […] Transfection competent cells were selected in 0.5 mg/ml of the G418 neomycin derivative for two weeks.
Expression vectors encoding several point mutants or truncations of Sgk were transfected into the mammary tumor cells and cell growth monitored by the cell foci assay.
Transient transfection and rapid screen of the sgk expression vectors for the anti-proliferative response in rodent and human mammary tumor cells. A transient cell foci growth assay is employed to rapidly screen the various Sgk constructs to define the domains that mediate the anti-proliferative response in rat and human mammary tumor cells using our optimized conditions. The advantage of this assay is that many different mutant Sgk expression vectors can be simultaneously compared for their growth inhibitory effects. Also, this assay can be used to rapidly assess the proliferative effects of combinations of Sgk and its interacting proteins or substrates. Populations of human MCF-7 breast cancer cells or rat Con8 mammary tumor cells are transfected by the lipofectin transfection procedures and cultured in normally cytotoxic concentrations (750 μg/ml) of the G418 neomycin derivative to recover transfection competent cells. Approximately 5000 transfected cells are cultured as colonies on plastic, and after one to two weeks are fixed and stained in crystal violet/formalin to visualize the cell colonies. The effects on cell proliferation are quantitated by simply counting the resulting cell colonies or by scanning the total cell density on each plate. To provide a control for the fidelity of the cell foci assays, in each experiment, cells transfected with the control vectors (no Sgk sequences) are treated with or without 1 μM dexamethasone because the cells are growth suppressed by this synthetic glucocorticoid. […]

Oc1ccc(-c2nc(-c3ccncc3)c(-c3ccc(F)cc3)[nH]2)cc1 [SB202190]
hyperosmotic stress-stimulation of the Sgk promoter and Sgk protein production (Sgk promoter): dampens the hyperosmotic stress-stimulation of the Sgk promoter and Sgk protein production

pervanadate [reference compound]
effect of cell treatment on Sgk enzymatic activity (Sgk): stimulated Sgk enzymatic activity

C=C1[C@@H](O)[C@@H]2O[C@]3(CC[C@H](/C=C/[C@@H](C)[C@@H]4CC(C)=C[C@@]5(O[C@H](C[C@@](C)(O)C(=O)O)CC[C@H]5O)O4)O3)CC[C@H]2O[C@@H]1[C@@H](O)C[C@H](C)[C@H]1O[C@@]2(CCCCO2)CC[C@H]1C [okadaic acid]
generation of hyperphosphorylated form of Sgk (endogenous Sgk): generates a hyperphosphorylated active Sgk

C[S+]([O-])c1ccc(-c2nc(-c3ccncc3)c(-c3ccc(F)cc3)[nH]2)cc1 (centres unmarked) [SB203580]
hyperosmotic stress-stimulation of the Sgk promoter and Sgk protein production (Sgk promoter): dampens the hyperosmotic stress-stimulation of the Sgk promoter and Sgk protein production

COc1cccc(-c2cc(=O)c3ccccc3o2)c1N [PD98059]
subcellular distribution of Sgk and Erk/MAPK (Sgk and Erk/MAPK): caused both Sgk and Erk/MAPK to localize to the cytoplasm

IGF-1: hormonal activator of the PI 3-kinase pathway [reference compound]
effect of cell treatment on Sgk enzymatic activity (Sgk): stimulated Sgk enzymatic activity

insulin: hormonal activator of the PI 3-kinase pathway [reference compound]
effect of cell treatment on Sgk enzymatic activity (Sgk): stimulated Sgk enzymatic activity

B1: T256D/S422D: Sgk double mutation T256D and S422D (protein, UniProt O00141 1-431, looked up, variant T256D S422D)
Serine/threonine-protein …: MTVKTEAAKGTLTYSRMRGMVAILIAFMKQRRMGLNDFIQKIANNSYACKHPEVQSILKISQPQEPELMNANPSPPPSPSQQINLGPSSNPHAKPSDFHFLKVIGKGSFGKVLLARHKAEEVFYAVKVLQKKAILKKKEEKHIMSERNVLLKNVKHPFLVGLHFSFQTADKLYFVLDYINGGELFYHLQRERCFLEPRARFYAAEIASALGYLHSLNIVYRDLKPENILLDSQGHIVLTDFGLCKENIEHNSTTSDFCGTPEYLAPEVLHKQPYDRTVDWWCLGAVLYEMLYGLPPFYSRNTAEMYDNILNKPLQLKPNITNSARHLLEGLLQKDRTKRLGAKDDFMEIKSHVFFSLINWDDLINKKITPPFNPNVSGPNDLRHFDPEFTEEPVPNSIGKSPDSVLVTASVKEAAEAFLGFDYAPPTDSFL
kinase activity / activation of Sgk mutant (Sgk): not constitutively active

B2: S422A: Sgk with serine 422 changed to alanine (protein, UniProt O00141 1-431, looked up, variant S422A)
Serine/threonine-protein …: B1 Serine/threonine-protein … with D256T, D422A
kinase activity / activation of Sgk mutant (Sgk): inhibited Sgk activation

B3: T256D: Sgk with threonine 256 changed to aspartate (protein, UniProt O00141 1-431, looked up, variant T256D)
Serine/threonine-protein …: B1 Serine/threonine-protein … with D422S
kinase activity / activation of Sgk mutant (Sgk): partially active

B4: S422D: Sgk with serine 422 changed to aspartate (protein, UniProt O00141 1-431, looked up, variant S422D)
Serine/threonine-protein …: B1 Serine/threonine-protein … with D256T
kinase activity / activation of Sgk mutant (Sgk): partially active

B5: T256A: Sgk with threonine 256 in the activation loop changed to alanine (protein, UniProt O00141 1-431, looked up, variant T256A)
Serine/threonine-protein …: B1 Serine/threonine-protein … with D256A, D422S
reduction in number of cell foci compared to the vector control (mammary tumor cells; G418 selection): 20 fold

B6: N60–431: N-terminal truncated Sgk (protein, UniProt O00141 60-431, looked up, fragment)
chain: ISQPQEPELMNANPSPPPSPSQQINLGPSSNPHAKPSDFHFLKVIGKGSFGKVLLARHKAEEVFYAVKVLQKKAILKKKEEKHIMSERNVLLKNVKHPFLVGLHFSFQTADKLYFVLDYINGGELFYHLQRERCFLEPRARFYAAEIASALGYLHSLNIVYRDLKPENILLDSQGHIVLTDFGLCKENIEHNSTTSTFCGTPEYLAPEVLHKQPYDRTVDWWCLGAVLYEMLYGLPPFYSRNTAEMYDNILNKPLQLKPNITNSARHLLEGLLQKDRTKRLGAKDDFMEIKSHVFFSLINWDDLINKKITPPFNPNVSGPNDLRHFDPEFTEEPVPNSIGKSPDSVLVTASVKEAAEAFLGFSYAPPTDSFL
effect on cell growth (cell foci assay) (mammary tumor cells): more effectively suppresses tumor cell growth compared to the full length Sgk protein

B7: C1–355: C-terminal Sgk truncation missing the last 75 amino acids (protein, UniProt O00141 1-355, looked up, fragment)
chain: MTVKTEAAKGTLTYSRMRGMVAILIAFMKQRRMGLNDFIQKIANNSYACKHPEVQSILKISQPQEPELMNANPSPPPSPSQQINLGPSSNPHAKPSDFHFLKVIGKGSFGKVLLARHKAEEVFYAVKVLQKKAILKKKEEKHIMSERNVLLKNVKHPFLVGLHFSFQTADKLYFVLDYINGGELFYHLQRERCFLEPRARFYAAEIASALGYLHSLNIVYRDLKPENILLDSQGHIVLTDFGLCKENIEHNSTTSTFCGTPEYLAPEVLHKQPYDRTVDWWCLGAVLYEMLYGLPPFYSRNTAEMYDNILNKPLQLKPNITNSARHLLEGLLQKDRTKRLGAKDDFMEIKSHVFF
effect on cell growth (cell foci assay) (mammary tumor cells): little or no effect on cell growth
